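48-hour exposure; five concentrations; linearly interpolated endpoints. GI50: concentration for 50% inhibition of growth. TGI: total growth inhibition.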
Experiments:
Assay in all cases: NCI-60 cell line screen, 48 h
A498 renal = test system: A498 renal
LOX IMVI melanoma = test system: LOX IMVI melanoma
MCF7 breast = test system: MCF7 breast
NCI-H522 lung = test system: NCI-H522 lung
OVCAR-3 ovarian = test system: OVCAR-3 ovarian
OVCAR-5 ovarian = test system: OVCAR-5 ovarian
PC-3 prostate = test system: PC-3 prostate
SK-MEL-5 melanoma = test system: SK-MEL-5 melanoma
SN12C renal = test system: SN12C renal
UO-31 renal = test system: UO-31 renal

SMILES | GI50 (A498 renal) [µM] | TGI (A498 renal) [µM] | GI50 (LOX IMVI melanoma) [µM] | TGI (LOX IMVI melanoma) [µM] | GI50 (MCF7 breast) [µM] | TGI (MCF7 breast) [µM] | GI50 (NCI-H522 lung) [µM] | TGI (NCI-H522 lung) [µM] | TGI (OVCAR-3 ovarian) [µM] | GI50 (OVCAR-5 ovarian) [µM] | TGI (OVCAR-5 ovarian) [µM] | TGI (PC-3 prostate) [µM] | GI50 (SK-MEL-5 melanoma) [µM] | TGI (SK-MEL-5 melanoma) [µM] | GI50 (SN12C renal) [µM] | TGI (SN12C renal) [µM] | GI50 (UO-31 renal) [µM] | TGI (UO-31 renal) [µM] | GI50 (OVCAR-3 ovarian) [µM] | GI50 (PC-3 prostate) [µM]
CCCCCCCCCCCCCCCC(=O)NS(=O)(=O)OC[C@H]1O[C@@H](n2cnc3c(N)ncnc32)[C@H](O)[C@@H]1O | < 0.03 | < 0.048 | 0.394 | 1.58 | 0.509 | 9.77 | 0.0479 | 0.427 | 0.124 | < 0.0158 | < 0.0339 | < 0.0166 | 0.234 | 0.571 | 0.262 | 1.45 | 0.339 | 1.33 | – | –
COc1ccc(OC(=O)N2C/C(=C\c3ccccc3)C(=O)/C(=C/c3ccccc3)C2)cc1 | – | 10.6 | – | 3.22 | – | 4.77 | – | 5.23 | 13.1 | – | 27.1 | 11.2 | – | 8.84 | – | 5.83 | – | 23.6 | – | –
CCN1CCN(Cc2ccc(Nc3ncc(F)c(-c4cc(F)c5nc(C)n(C(C)C)c5c4)n3)nc2)CC1 | 1.05 | 50 | 1.41 | 10.9 | 0.0241 | 10.4 | 8.92 | 18.1 | 13.5 | 8.53 | 50 | 11.1 | 0.392 | 10.3 | 5.55 | 12.6 | 0.139 | 7.26 | 6.34 | 0.0527
Cc1cc(S(=O)(=O)Nc2nc3ccccc3c(=O)n2Cc2ccco2)c(S)cc1Cl | 33.1 | > 100 | 26.1 | 59.3 | 41.5 | > 100 | 37.4 | > 100 | > 100 | 60.4 | > 100 | > 100 | 22.8 | > 100 | 29.8 | 88.8 | 49.5 | > 100 | 30.5 | 36.9
c1cc[n+](Cc2c3ccccc3cc3c2ccc2ccccc23)cc1 | 14.4 | 40.9 | 3.72 | 15.8 | 3.25 | 13.2 | 1.68 | 5.31 | 11.4 | 11.1 | 26.8 | 14.4 | 1.77 | 3.89 | 0.506 | 4.73 | 27.5 | > 100 | 2.6 | 2.8
COc1ccc(-c2cc(=O)c3c(OC)c4ccoc4c(/C=C/C=O)c3o2)cc1 | 17.2 | 71.9 | 1.08 | 2.34 | 1.63 | > 100 | 34.6 | > 100 | 25.3 | 11.7 | 46.8 | 16.5 | 1.69 | 3.51 | 2.32 | 59.5 | 3.17 | 19.5 | 3.92 | 2.58
CS(=O)(=O)Nc1cc(-c2ccc3ncc(C#N)c(Nc4ccc(F)c(Cl)c4)c3c2)cnc1Cl | 0.0398 | 0.302 | 0.169 | 0.698 | 0.0946 | > 100 | 0.113 | 1.46 | 0.909 | 0.308 | 2.29 | 10.6 | 0.0428 | 0.159 | 0.133 | > 100 | 0.125 | 1.03 | 0.0657 | 0.197
CC(C)c1cnc(-c2cc(Cl)ccc2F)cc1Nc1ccncc1C(=O)NC(CO)CO | 2.28 | 19.7 | 13.7 | 27.9 | 11.6 | 27.3 | 13 | 30.4 | 32.8 | 16.2 | 39.6 | 32.6 | 14.2 | 27.5 | 8.13 | 23.7 | 2.87 | 21.9 | 14.3 | 13.8
Cc1ccc(C2=NN(c3ccc(S(=O)(=O)NC(=O)NCc4ccccc4)cc3)C(c3ccc(N(C)C)cc3)C2)c(C)c1 (stereo not drawn) | 3.08 | 12.5 | 4.08 | 14.1 | 2.99 | 31.2 | 4.48 | 28.7 | 4.95 | 5.4 | 29.3 | 42 | 2.32 | 5.62 | 3.35 | 61.5 | 4.27 | 15.7 | 2.24 | 3.33
COc1cc(/C=C2\CC3C4CCC5=CC(=O)CC[C@]5(C)C4CC[C@]3(C)C2=O)ccc1OCCN1CCCC1 (stereo partly drawn) | 5.05 | 10.6 | 2.01 | 3.97 | 4.07 | > 45.3 | 2.33 | 5.45 | 6.01 | 2.64 | 8.26 | 8.31 | 1.8 | 3.5 | 3.28 | 9.18 | 1.68 | 3.38 | 2.37 | 2.35
COc1ccc(N=Nc2ccc(O)c(=O)cc2)cc1 | 24.1 | > 100 | 2.44 | 27 | 3.4 | > 100 | 2.88 | 13.4 | > 100 | 5.89 | > 100 | > 100 | 3.34 | 16.2 | 2.82 | > 100 | 2.91 | > 100 | 3.64 | 4.82
Cc1[nH]c(C(=O)Nc2cccc(OC3CCNCC3)c2)c(Cl)c1Cl | 1.89 | 4.6 | 1.66 | 3.16 | 1.5 | 3.05 | 1.86 | 4.02 | 4.01 | 1.63 | 3.11 | 3.36 | 1.78 | 3.23 | 2.8 | 10.1 | 1.52 | 2.94 | 1.97 | 1.69

From PubChem BioAssay (NCI)
